Reference: patent publication US11993604B2, “Substituted pyrazolo[4,3-H]quinazolines as protein kinase inhibitors” (SHENGKE PHARMACEUTICALS (JIANGSU) LTD., priority 2017, dated 2024)
Where a name gives a salt, the structure may show the parent alone.

Assays:
CDK6/cyclin D1 = CDK6/cyclin D1 (Homo sapiens, UniProt Q00534); assay: Biochemical kinase inhibition test, CDK6/cyclin D1 (similar method); conditions: three-fold serial dilution from 10 μM; 10 μM ATP; read-out: CDK6/D1 (nM), enzyme inhibitory activity IC50
Chain of CDK6/cyclin D1 (Q00534 whole entry, species assumed): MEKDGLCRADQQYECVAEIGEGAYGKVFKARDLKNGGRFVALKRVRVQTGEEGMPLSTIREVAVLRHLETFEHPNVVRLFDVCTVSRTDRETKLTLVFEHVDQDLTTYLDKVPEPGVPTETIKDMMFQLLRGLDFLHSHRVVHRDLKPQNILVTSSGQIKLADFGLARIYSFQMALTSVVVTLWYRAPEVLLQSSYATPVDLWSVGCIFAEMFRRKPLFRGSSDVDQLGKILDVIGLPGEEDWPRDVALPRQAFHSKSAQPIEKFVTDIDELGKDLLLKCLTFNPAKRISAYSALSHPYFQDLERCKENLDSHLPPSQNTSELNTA
Chain of CDK6/cyclin D1 (P24385 whole entry partner, species assumed): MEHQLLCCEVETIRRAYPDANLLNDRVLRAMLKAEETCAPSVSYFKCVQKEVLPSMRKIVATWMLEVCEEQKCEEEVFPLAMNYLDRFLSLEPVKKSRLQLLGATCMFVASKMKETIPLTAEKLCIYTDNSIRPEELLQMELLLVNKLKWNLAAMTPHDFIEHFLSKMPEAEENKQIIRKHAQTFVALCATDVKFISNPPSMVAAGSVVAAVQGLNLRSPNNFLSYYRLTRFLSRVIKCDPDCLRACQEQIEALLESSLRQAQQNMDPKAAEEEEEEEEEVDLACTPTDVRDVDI
Description: Potency determination of biochemical kinase inhibition test. Kinase activity test and IC50 determination. Firstly, 10 ng of recombinant CDK4/Cyclin D1 (Life Technologies PV4204) was diluted in kinase buffer (20 mM Tris pH 7.5, 10 mM MgCl2, 0.01% NP-40, 2 mM DTT), and was incubated with inhibitors at the indicated concentration at room temperature for 30 minutes. The kinase reaction was initiated by adding […] (1.5 μM) of recombinant retinoblastoma protein, 5 μM ATP and 10μ Ci γ-32P-ATP. The reaction was incubated at 30° C. for 20 minutes, and was terminated by adding 2× Laemmli sample buffer, heated at 95° C. for three minutes, and the resulting solution was dissolved with 12% acrylamide SDS-PAGE and autoradiographed. A densitometer (Bio-Rad) was used to quantify the corresponding phosphorylated substrate protein bands. The resulting density values were plotted as a function of the log drug concentration using Prism 4 Graphpad software. IC50 values were determined by plotting a non-linear regression curve with a variable slope.
The inhibitory activity of the compounds disclosed herein against CDK6/cyclin D1 was tested by a similar method.
The compounds were tested in a three-fold serial dilution from the starting concentration of 10 μM, over 10-fold of IC50. The control compound, staurosporine, was tested in a four-fold serial dilution from the starting concentration of 20 μM, over 10-fold of IC50. These reactions took place in the presence of 10 μM ATP.

[1] = target: T1, recombinant CDK4/Cyclin D1 (Homo sapiens, UniProt P11802); assay: Biochemical kinase inhibition test, CDK4/Cyclin D1 (32P-ATP, retinoblastoma protein substrate); conditions: three-fold serial dilution from 10 μM; 10 μM ATP; read-out: CDK4/D1 (nM), enzyme inhibitory activity IC50
T1 construct: purchased Life Technologies PV4204
T1 sequence (P11802 whole entry): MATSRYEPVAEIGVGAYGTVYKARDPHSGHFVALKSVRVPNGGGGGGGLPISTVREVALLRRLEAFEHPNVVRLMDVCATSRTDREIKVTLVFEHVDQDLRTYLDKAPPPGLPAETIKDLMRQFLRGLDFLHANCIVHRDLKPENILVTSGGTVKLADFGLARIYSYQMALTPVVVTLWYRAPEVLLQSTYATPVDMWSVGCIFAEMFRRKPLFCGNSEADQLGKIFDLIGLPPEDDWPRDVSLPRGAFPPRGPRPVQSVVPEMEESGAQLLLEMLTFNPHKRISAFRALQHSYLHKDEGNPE
T1 sequence (P24385 whole entry partner): as the sequence (P24385 whole entry partner, species assumed) above

| Compound | IC50 (CDK6/cyclin D1) [nM] | IC50 [1] [nM] |
| --- | --- | --- |
| CC(C)n1ncc2ccc3cnc(Nc4ccc(N5CCNCC5)cn4)nc3c21 [Compound I-1, 1-isopropyl-N-(5-(piperazin-1-yl)pyridin-2-yl)-1H-pyrazolo[4,3-h]quinazolin-8-amine hydrochloride] | < 1 | < 1 |
| Cc1nc(Nc2ncc3ccc4cnn(C(C)C)c4c3n2)ccc1N1CCNCC1 [Compound I-2] | 1 to 5 | 1 to 5 |
| Cc1cc(Nc2ncc3ccc4cnn(C(C)C)c4c3n2)ncc1N1CCNCC1 [Compound I-3] | 10 to 20 | 5 to 10 |
| CC(C)n1ncc2ccc3cnc(Nc4ccc(N5CCN(C)CC5)cn4)nc3c21 [Compound I-4] | 1 to 5 | 1 to 5 |
| Cc1cc(Nc2ncc3ccc4cnn(C(C)C)c4c3n2)ncc1N1CCN(C)CC1 [Compound I-5] | 10 to 20 | 5 to 10 |
| Cc1nc(Nc2ncc3ccc4cnn(C(C)C)c4c3n2)ccc1N1CCN(C)CC1 [Compound I-6] | < 1 | 1 to 5 |
| CCN1CCN(c2ccc(Nc3ncc4ccc5cnn(C(C)C)c5c4n3)nc2)CC1 [Compound I-7] | 1 to 5 | 1 to 5 |
| CCN1CCN(c2cnc(Nc3ncc4ccc5cnn(C(C)C)c5c4n3)cc2C)CC1 [Compound I-8] | 10 to 20 | 5 to 10 |
| CCN1CCN(c2ccc(Nc3ncc4ccc5cnn(C(C)C)c5c4n3)nc2C)CC1 [Compound I-9] | < 1 | 1 to 5 |
| CC(C)n1ncc2ccc3cnc(Nc4cc(F)c(N5CCNCC5)cn4)nc3c21 [Compound I-10] | 10 to 20 | 5 to 10 |
| CC(C)n1ncc2ccc3cnc(Nc4ccc(N5CCNCC5)c(F)n4)nc3c21 [Compound I-11] | 5 to 10 | 1 to 5 |
| CC(C)n1ncc2ccc3cnc(Nc4ccc(N5CCN[C@@H](C)C5)cn4)nc3c21 [Compound I-12] | 5 to 10 | 5 to 10 |
| CC(C)n1ncc2ccc3cnc(Nc4ccc(N5C[C@@H](C)N[C@@H](C)C5)cn4)nc3c21 [Compound I-13] | 5 to 10 | 5 to 10 |
| CC(C)n1ncc2ccc3cnc(Nc4ccc(N5CCNC(C)(C)C5)cn4)nc3c21 [Compound I-14] | 10 to 20 | 10 to 20 |
| CC(C)n1ncc2ccc3cnc(Nc4ccc(N5CCOCC5)cn4)nc3c21 [Compound I-15] | 1 to 5 | 1 to 5 |
| CC1CN(c2ccc(Nc3ncc4ccc5cnn(C(C)C)c5c4n3)nc2)CCO1 (stereo not shown) [Compound I-16] | 5 to 10 | 5 to 10 |

Continued, values first:

| IC50 (CDK6/cyclin D1) [nM] | IC50 [1] [nM] | Compound |
| --- | --- | --- |
| 5 to 10 | 5 to 10 | CC(C)n1ncc2ccc3cnc(Nc4ccc(N5C[C@@H](C)O[C@@H](C)C5)cn4)nc3c21 [Compound I-17] |
| < 1 | 1 to 5 | Cc1nc(Nc2ncc3ccc4cnn(C(C)C)c4c3n2)ccc1N1CCOCC1 [Compound I-18] |
| 10 to 20 | 20 to 50 | Cc1cc(Nc2ncc3ccc4cnn(C(C)C)c4c3n2)ncc1N1CCOCC1 [Compound I-19] |
| 20 to 50 | 20 to 50 | Cc1cc(Nc2ncc3ccc4cnn(C(C)C)c4c3n2)ncc1N1CCOC(C)C1 (stereo not shown) [Compound I-20] |
| 10 to 20 | 5 to 10 | Cc1nc(Nc2ncc3ccc4cnn(C(C)C)c4c3n2)ccc1N1CCOC(C)C1 (stereo not shown) [Compound I-21] |
| 10 to 20 | 10 to 20 | CC(C)n1ncc2ccc3cnc(Nc4ccc(N5CCCNCC5)cn4)nc3c21 [Compound I-22] |
| 50 to 100 | 50 to 100 | CC(C)n1ncc2ccc3cnc(Nc4ccc(N5CCCCC5)cn4)nc3c21 [Compound I-23] |
| 20 to 50 | 20 to 50 | CC(C)n1ncc2ccc3cnc(Nc4ccc(N5CCC(N(C)C)CC5)cn4)nc3c21 [Compound I-24] |
| 1 to 5 | 1 to 5 | CC(C)n1ncc2ccc3cnc(Nc4ccc(N5CCC6(CC5)CNC6)cn4)nc3c21 [Compound I-25] |
| 1 to 5 | 1 to 5 | CC(C)n1ncc2ccc3cnc(Nc4ccc(N5CC6(CCNCC6)C5)cn4)nc3c21 [Compound I-26] |
